Test results taken from the kinase profiling compilation of Christmann-Franck et al. (2016).

What was measured:
Assay in all cases: KINOMEscan competition binding
Conditions in all cases: compound 10.0 µM
PRKD1 (human) = PRKD1 (human) (UniProt Q15139)
[1] = tested on: ABL1 (human), P00519 [Y253F]
HIPK3 (human) = HIPK3 (human) (UniProt Q9H422)
FRK (human) = FRK (human) (UniProt P42685)
PKN2 (human) = PKN2 (human) (UniProt Q16513)
AURKB (human) = AURKB (human) (UniProt Q96GD4)
ULK3 (human) = ULK3 (human) (UniProt Q6PHR2)
Sequence of ULK3 (human) (Q6PHR2 whole entry, looked up): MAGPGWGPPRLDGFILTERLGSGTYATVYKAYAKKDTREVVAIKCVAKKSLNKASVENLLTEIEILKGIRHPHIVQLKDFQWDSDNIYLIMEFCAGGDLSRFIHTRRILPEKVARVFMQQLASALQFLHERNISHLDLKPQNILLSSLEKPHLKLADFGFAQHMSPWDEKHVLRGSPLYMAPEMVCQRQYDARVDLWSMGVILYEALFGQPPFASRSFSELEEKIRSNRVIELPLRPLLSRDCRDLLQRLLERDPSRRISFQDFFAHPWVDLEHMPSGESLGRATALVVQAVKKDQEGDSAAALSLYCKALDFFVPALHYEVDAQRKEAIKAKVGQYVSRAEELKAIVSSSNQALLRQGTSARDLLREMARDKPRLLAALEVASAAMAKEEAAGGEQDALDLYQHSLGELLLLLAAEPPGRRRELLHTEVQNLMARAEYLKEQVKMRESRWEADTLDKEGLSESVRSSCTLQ

CAMK2A (human) = CAMK2A (human) (UniProt Q9UQM7)
RPS6KA1 KD2 (human) = RPS6KA1 KD2 (human) (UniProt Q15418)
DAPK2 (human) = DAPK2 (human) (UniProt Q9UIK4)
GSK3A (human) = GSK3A (human) (UniProt P49840)
Sequence of GSK3A (human) (P49840 whole entry, looked up): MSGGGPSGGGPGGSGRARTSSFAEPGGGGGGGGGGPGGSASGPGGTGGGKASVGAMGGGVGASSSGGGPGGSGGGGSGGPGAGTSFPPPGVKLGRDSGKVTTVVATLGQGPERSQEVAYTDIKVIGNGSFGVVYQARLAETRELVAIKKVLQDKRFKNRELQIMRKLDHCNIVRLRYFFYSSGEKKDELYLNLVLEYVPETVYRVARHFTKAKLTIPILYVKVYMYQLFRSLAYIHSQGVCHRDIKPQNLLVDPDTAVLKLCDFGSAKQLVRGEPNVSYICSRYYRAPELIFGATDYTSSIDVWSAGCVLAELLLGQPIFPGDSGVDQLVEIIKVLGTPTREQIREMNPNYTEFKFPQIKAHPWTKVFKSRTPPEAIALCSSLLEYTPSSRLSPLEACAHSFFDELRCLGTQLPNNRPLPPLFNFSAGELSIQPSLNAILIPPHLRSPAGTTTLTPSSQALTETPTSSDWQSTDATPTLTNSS

FGFR3 (human) = FGFR3 (human) (UniProt P22607)
LIMK2 (human) = LIMK2 (human) (UniProt P53671)
BMPR2 (human) = BMPR2 (human) (UniProt Q13873)
Sequence of BMPR2 (human) (Q13873 whole entry, looked up): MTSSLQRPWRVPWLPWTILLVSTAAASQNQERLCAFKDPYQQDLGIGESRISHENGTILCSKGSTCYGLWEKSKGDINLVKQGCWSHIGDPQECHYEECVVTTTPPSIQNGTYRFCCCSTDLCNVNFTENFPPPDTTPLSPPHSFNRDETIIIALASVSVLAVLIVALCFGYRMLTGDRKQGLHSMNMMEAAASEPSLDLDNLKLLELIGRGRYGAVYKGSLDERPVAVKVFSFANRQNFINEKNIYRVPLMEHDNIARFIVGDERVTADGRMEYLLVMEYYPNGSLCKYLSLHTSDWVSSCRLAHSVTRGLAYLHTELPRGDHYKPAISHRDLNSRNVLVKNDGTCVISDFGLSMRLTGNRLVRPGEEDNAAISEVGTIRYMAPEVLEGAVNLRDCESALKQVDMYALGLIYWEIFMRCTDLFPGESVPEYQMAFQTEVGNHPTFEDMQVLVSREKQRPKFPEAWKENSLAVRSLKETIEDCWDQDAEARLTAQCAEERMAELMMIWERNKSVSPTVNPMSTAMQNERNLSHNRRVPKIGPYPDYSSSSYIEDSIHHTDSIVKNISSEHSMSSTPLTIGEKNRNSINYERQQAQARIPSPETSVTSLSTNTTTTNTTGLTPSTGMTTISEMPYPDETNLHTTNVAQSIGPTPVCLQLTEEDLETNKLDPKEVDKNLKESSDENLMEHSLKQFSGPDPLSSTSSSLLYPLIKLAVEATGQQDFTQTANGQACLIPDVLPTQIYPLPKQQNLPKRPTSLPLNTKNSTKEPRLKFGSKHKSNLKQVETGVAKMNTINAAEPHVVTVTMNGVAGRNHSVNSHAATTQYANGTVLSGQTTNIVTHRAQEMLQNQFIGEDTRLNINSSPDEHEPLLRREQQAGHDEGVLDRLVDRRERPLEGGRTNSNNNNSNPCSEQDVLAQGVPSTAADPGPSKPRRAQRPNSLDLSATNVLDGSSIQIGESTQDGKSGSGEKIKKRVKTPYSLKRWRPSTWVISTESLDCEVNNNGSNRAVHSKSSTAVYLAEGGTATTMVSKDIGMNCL

STK32C (human) = STK32C (human) (UniProt Q86UX6)
CAMK1D (human) = CAMK1D (human) (UniProt Q8IU85)
Sequence of CAMK1D (human) (Q8IU85 whole entry, looked up): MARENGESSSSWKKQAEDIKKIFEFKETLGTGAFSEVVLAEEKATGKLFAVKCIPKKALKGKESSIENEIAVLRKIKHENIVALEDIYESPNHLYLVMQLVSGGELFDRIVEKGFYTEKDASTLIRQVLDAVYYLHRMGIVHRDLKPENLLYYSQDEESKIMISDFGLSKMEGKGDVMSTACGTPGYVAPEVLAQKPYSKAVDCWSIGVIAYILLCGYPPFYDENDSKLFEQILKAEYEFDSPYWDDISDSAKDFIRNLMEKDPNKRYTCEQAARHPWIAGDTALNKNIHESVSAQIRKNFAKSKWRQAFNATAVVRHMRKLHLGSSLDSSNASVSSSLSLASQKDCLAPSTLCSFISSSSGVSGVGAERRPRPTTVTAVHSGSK

KIT (human) = KIT (human) (UniProt P10721)
GAK (human) = GAK (human) (UniProt O14976)
PDPK1 (human) = PDPK1 (human) (UniProt O15530)
STK4 (human) = STK4 (human) (UniProt Q13043)
Sequence of STK4 (human) (Q13043 whole entry, looked up): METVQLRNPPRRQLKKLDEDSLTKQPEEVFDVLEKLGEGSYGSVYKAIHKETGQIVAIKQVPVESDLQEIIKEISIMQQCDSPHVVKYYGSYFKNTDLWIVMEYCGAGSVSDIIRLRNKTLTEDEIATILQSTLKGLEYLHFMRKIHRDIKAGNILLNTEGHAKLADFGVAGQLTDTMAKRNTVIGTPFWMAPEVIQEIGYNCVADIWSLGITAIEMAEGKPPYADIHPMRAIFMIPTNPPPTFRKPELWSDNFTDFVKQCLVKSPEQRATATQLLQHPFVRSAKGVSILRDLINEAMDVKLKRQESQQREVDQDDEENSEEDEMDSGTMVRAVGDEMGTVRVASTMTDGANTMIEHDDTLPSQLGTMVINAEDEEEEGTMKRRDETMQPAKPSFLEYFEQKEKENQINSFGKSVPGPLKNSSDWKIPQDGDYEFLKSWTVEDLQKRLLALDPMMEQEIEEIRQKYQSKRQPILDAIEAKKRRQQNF

LCK (human) = LCK (human) (UniProt P06239)
Sequence of LCK (human) (P06239 whole entry, looked up): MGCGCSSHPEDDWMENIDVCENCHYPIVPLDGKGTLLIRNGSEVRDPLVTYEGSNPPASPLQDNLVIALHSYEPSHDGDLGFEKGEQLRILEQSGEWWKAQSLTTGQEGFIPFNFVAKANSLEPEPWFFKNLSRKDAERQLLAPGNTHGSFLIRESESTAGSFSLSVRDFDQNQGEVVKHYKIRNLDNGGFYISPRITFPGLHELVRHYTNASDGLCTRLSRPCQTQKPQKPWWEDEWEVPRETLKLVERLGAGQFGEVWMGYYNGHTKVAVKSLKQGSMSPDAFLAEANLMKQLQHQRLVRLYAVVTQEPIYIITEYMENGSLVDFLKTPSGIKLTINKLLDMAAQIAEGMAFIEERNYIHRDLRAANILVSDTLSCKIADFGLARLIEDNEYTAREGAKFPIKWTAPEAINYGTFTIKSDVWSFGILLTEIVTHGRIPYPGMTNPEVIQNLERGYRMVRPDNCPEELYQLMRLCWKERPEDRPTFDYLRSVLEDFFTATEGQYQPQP

FES (human) = FES (human) (UniProt P07332)
PRKACB (human) = PRKACB (human) (UniProt P22694)
CHEK1 (human) = CHEK1 (human) (UniProt O14757)
IRAK1 (human) = IRAK1 (human) (UniProt P51617)
MAPK14 (human) = MAPK14 (human) (UniProt Q16539)
MAP2K1 (human) = MAP2K1 (human) (UniProt Q02750)
Sequence of MAP2K1 (human) (Q02750 whole entry, looked up): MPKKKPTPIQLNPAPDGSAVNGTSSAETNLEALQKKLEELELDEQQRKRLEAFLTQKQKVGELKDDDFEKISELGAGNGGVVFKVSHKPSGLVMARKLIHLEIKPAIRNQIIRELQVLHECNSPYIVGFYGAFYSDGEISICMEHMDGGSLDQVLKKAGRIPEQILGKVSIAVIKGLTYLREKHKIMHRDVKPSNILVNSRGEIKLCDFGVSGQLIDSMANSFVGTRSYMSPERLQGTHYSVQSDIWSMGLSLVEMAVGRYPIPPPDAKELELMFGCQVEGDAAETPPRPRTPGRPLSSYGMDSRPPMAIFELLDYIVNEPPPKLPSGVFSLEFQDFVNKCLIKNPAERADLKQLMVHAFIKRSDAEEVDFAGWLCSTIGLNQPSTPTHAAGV

INSR (human) = INSR (human) (UniProt P06213)
HUNK (human) = HUNK (human) (UniProt P57058)
ULK1 (human) = ULK1 (human) (UniProt O75385)
CHUK (human) = CHUK (human) (UniProt O15111)
Sequence of CHUK (human) (O15111 whole entry, looked up): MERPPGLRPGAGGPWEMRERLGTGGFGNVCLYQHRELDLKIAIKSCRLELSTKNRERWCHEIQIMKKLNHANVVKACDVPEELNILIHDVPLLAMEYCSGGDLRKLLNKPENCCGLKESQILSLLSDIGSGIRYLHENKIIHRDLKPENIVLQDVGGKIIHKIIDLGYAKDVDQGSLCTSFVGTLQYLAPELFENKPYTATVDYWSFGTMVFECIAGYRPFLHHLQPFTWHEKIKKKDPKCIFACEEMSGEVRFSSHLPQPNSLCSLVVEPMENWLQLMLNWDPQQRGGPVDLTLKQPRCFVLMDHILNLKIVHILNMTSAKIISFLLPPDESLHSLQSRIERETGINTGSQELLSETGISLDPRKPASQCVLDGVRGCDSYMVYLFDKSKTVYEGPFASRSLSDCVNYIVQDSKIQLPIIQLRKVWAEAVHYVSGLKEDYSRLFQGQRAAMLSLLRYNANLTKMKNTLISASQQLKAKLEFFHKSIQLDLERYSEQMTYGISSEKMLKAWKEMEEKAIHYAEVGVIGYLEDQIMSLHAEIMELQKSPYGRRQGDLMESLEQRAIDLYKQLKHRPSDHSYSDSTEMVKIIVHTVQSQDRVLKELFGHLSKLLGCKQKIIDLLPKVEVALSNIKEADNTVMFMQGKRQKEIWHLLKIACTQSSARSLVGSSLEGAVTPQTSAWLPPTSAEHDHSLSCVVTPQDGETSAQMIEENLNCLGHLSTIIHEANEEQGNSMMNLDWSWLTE

MAP3K13 (human) = MAP3K13 (human) (UniProt O43283)
MUSK (human) = MUSK (human) (UniProt O15146)
CSK (human) = CSK (human) (UniProt P41240)
[2] = tested on: FLT3 (human), P36888 [D835H]
GRK4 (human) = GRK4 (human) (UniProt P32298)
DCLK1 (human) = DCLK1 (human) (UniProt O15075)
CAMK1G (human) = CAMK1G (human) (UniProt Q96NX5)

Sequence of AURKB (human) (Q96GD4 whole entry, looked up): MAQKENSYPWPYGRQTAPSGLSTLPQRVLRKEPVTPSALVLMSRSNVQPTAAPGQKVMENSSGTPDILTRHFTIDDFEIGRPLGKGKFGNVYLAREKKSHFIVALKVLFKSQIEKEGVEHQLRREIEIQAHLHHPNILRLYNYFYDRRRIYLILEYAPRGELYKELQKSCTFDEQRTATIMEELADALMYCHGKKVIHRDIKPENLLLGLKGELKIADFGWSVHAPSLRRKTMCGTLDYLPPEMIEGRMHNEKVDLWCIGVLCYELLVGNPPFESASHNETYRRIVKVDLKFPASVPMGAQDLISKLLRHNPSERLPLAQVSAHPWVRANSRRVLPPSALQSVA

Row | kinase still bound, per cent of control (PRKD1 (human)) [%] | kinase still bound, per cent of control [1] [%] | kinase still bound, per cent of control (HIPK3 (human)) [%] | kinase still bound, per cent of control (FRK (human)) [%] | kinase still bound, per cent of control (PKN2 (human)) [%] | kinase still bound, per cent of control (AURKB (human)) [%] | kinase still bound, per cent of control (ULK3 (human)) [%] | kinase still bound, per cent of control (CAMK2A (human)) [%] | kinase still bound, per cent of control (RPS6KA1 KD2 (human)) [%] | kinase still bound, per cent of control (DAPK2 (human)) [%] | kinase still bound, per cent of control (GSK3A (human)) [%] | kinase still bound, per cent of control (FGFR3 (human)) [%] | kinase still bound, per cent of control (LIMK2 (human)) [%] | kinase still bound, per cent of control (BMPR2 (human)) [%] | kinase still bound, per cent of control (STK32C (human)) [%] | kinase still bound, per cent of control (CAMK1D (human)) [%] | kinase still bound, per cent of control (KIT (human)) [%] | kinase still bound, per cent of control (GAK (human)) [%] | kinase still bound, per cent of control (PDPK1 (human)) [%] | kinase still bound, per cent of control (STK4 (human)) [%] | SMILES | also measured
1 | 100 | 100 | 100 | 100 | 100 | 100 | 100 | 100 | 100 | 100 | 100 | 100 | 100 | 100 | 100 | 100 | 100 | 100 | 100 | 100 | CS(=O)(=O)N1CCN(Cc2cc3nc(-c4cccc5[nH]ncc45)nc(N4CCOCC4)c3s2)CC1 | kinase still bound, per cent of control (LCK (human)): 100%; kinase still bound, per cent of control (FES (human)): 100%; kinase still bound, per cent of control (PRKACB (human)): 100%; kinase still bound, per cent of control (CHEK1 (human)): 100%; kinase still bound, per cent of control (IRAK1 (human)): 100%; kinase still bound, per cent of control (MAPK14 (human)): 100%; kinase still bound, per cent of control (MAP2K1 (human)): 100%; kinase still bound, per cent of control (INSR (human)): 100%; kinase still bound, per cent of control (HUNK (human)): 100%; kinase still bound, per cent of control (ULK1 (human)): 100%; kinase still bound, per cent of control (CHUK (human)): 100%; kinase still bound, per cent of control (MAP3K13 (human)): 100%; kinase still bound, per cent of control (MUSK (human)): 100%; kinase still bound, per cent of control (CSK (human)): 100%; kinase still bound, per cent of control [2]: 100%; kinase still bound, per cent of control (GRK4 (human)): 100%; kinase still bound, per cent of control (DCLK1 (human)): 100%
2 | 100 | 100 | 100 | 100 | 100 | 100 | 100 | 100 | 100 | 100 | 100 | 3.3 | 100 | 100 | 100 | 25 | 6.7 | 100 | 100 | 100 | CCN(CC)CCCCNc1ncc2c(n1)N(C)C(=O)N(c1c(Cl)c(OC)cc(OC)c1Cl)C2 | kinase still bound, per cent of control (CAMK1G (human)): 100%; kinase still bound, per cent of control (LCK (human)): 3%; kinase still bound, per cent of control (FES (human)): 100%; kinase still bound, per cent of control (PRKACB (human)): 100%; kinase still bound, per cent of control (CHEK1 (human)): 100%; kinase still bound, per cent of control (IRAK1 (human)): 100%; kinase still bound, per cent of control (MAPK14 (human)): 100%; kinase still bound, per cent of control (MAP2K1 (human)): 100%; kinase still bound, per cent of control (INSR (human)): 100%; kinase still bound, per cent of control (HUNK (human)): 100%; kinase still bound, per cent of control (ULK1 (human)): 100%; kinase still bound, per cent of control (CHUK (human)): 100%; kinase still bound, per cent of control (MAP3K13 (human)): 100%; kinase still bound, per cent of control (MUSK (human)): 100%; kinase still bound, per cent of control (CSK (human)): 100%; kinase still bound, per cent of control [2]: 100%; kinase still bound, per cent of control (GRK4 (human)): 100%; kinase still bound, per cent of control (DCLK1 (human)): 100%
